Data as given in PMC12610274, “Identification of Marrubiin as a Cathepsin C Inhibitor for Treating Rheumatoid Arthritis” (Molecules, 2025).

Columns and labels:
[1] = target: T1, CTSB (Homo sapiens, UniProt P07858); assay: Human recombinant cathepsins isolated enzyme assay, CTSB; assay type: biochemical; details: read-out: CTSB Enz (IC50: μM)
T1 construct: purchased R&D Systems
Description: (§1) The protocol for evaluating the inhibitory potency of compounds against other cathepsins referred to the CTSC activity assay. Recombinant human CTSB, CTSL, CTSS and CTSK for testing were also purchased from R&D Systems Biotechnology Company. Recombinant human Cat G, NE, and PR3 For testing were purchased from MedChemExpress. A multi-functional microplate reader was used to measure the absorption of Z-Leu-Arg-AMC at excitation/emission wavelengths of 380/460 nm to assess the activity changes of CTSB and CTSL, while the absorption of MCA-Arg-Pro-Lys-Pro-Val-Glu-NVAL-Trp-Arg-Lys(DNP)-NH2 at 320/405 nm was measured to evaluate the activity changes of CTSS and CTSK. Different assay buffers were prepared for diluting samples and measuring the activities of specific NSPs: a buffer containing 50 mM Tris and 750 mM NaCl (pH 7.4) was used for NE and PR3; a buffer containing 50 mM Tris, 750 mM NaCl, 5 mM EDTA (pH 7.4) was used for Cat G; and a buffer containing 25 mM MES, 50 mM NaCl, 5 mM DTT (pH 6.0) was used for CTSC. Synthetic substrates were employed to assess the activities of NSPs and CTSC: H-Gly-Arg-AMC for CTSC, N-MeSuc-Ala-Ala-Pro-Val-pNA for NE, aminobenzoyl-Val-Ala-Asp-Cys-Ala-Asp-Gln-ethylenediamine 2,4-dinitrophenyl for PR3, and N-Suc-Ala-Ala-Pro-Phe-pNA for Cat G. Each group of tests was independently repeated at least 3 times, and IC50 values were calculated using SPSS 10.0.

[2] = target: T2, NE (Homo sapiens, UniProt P08246); assay: Recombinant NSPs isolated enzyme assay, NE; assay type: biochemical; details: read-out: NE Enz (IC50: μM)
T2 construct: purchased MedChemExpress
Description: as §1

[3] = system: NE; assay: NSPs activity in U937 cells after 5 days of treatment, NE; assay type: cell-based, human; details: U937, 10 μM
Description: U937 cells in the logarithmic growth phase were collected and equally divided into six portions. Four of these portions were treated with DMSO solutions of the test compound at varying concentrations to achieve final concentrations of 1.25, 2.5, 5, and 10 μM, respectively. An equal volume of DMSO was added to one portion as a blank control, while another portion treated with a DMSO solution of AZD7986 served as a positive control. The cells were cultured under standard U937 conditions for 5 consecutive days, with daily medium changes and fresh compound treatments administered using the same protocol. Following 5 days of treatment, cells were harvested, washed twice thoroughly with phosphate-buffered saline, and lysed in phosphate-buffered saline containing 1% Triton X-100. The lysates were centrifuged to collect the supernatant, and protein concentrations were determined as previously described to ensure equal total protein loading across all samples. The prepared samples were stored at −20 °C until further analysis. Different assay buffers were prepared for diluting samples and measuring the activities of specific NSPs: a buffer containing 50 mM Tris and 750 mM NaCl (pH 7.4) was used for NE and PR3; a buffer containing 50 mM Tris, 750 mM NaCl, 5 mM EDTA (pH 7.4) was used for Cat G; and a buffer containing 25 mM MES, 50 mM NaCl, 5 mM DTT (pH 6.0) was used for CTSC. […]

[4] = system: PR3; assay: PR3 activity in blood and bone marrow of mice; assay type: in vivo, C57BL/6 mice; details: 30 mg/kg daily gavage, 7 days
Description: (§2) A total of 25 C57BL/6 mice (6–8 weeks old, weighing approximately 20 g, with equal numbers of males and females) were randomly divided into five groups. Mice in the compound-treated groups were orally administered the compound once daily at doses of 0.3, 3, and 30 mg/kg for 7 consecutive days. […] Mice in the normal group were given an equal volume of normal saline at the same time points. The body weight, death rate, and behavior were observed and recorded daily for one week. After 7 days, bone marrow and blood samples were collected from the mice and lysed using 8% Triton X-100 buffer. The lysates were stored at −20 °C until testing. The activity assays for CTSC and NSPs were performed as described above. The mice were anesthetized and the tissues were taken for H&E staining.

[5] = Safety evaluation in vivo (body weight, toxic reactions, H&E staining); details: mice, high-dose group (30 mg/kg)
Description: as §2

[6] = system: NE; assay: AIA model, serum NE activity; assay type: in vivo, Sprague-Dawley rats; details: rat AIA, high dose 60 mg/kg gavage, 15 days
Description: (§3) Thirty 4-week-old male Sprague-Dawley rats (weighing 120–130 g) were randomly divided into 6 groups (5 rats per group) after 1 week of adaptive feeding, namely the normal group, model group, low-dose experimental group (15 mg/kg), medium-dose experimental group (30 mg/kg), high-dose experimental group (60 mg/kg), and positive control group (30 mg/kg). Starting from Day 0 of the experiment, rats in the administration groups and model group were injected intradermally with 0.1 mL of CFA into the left hind paw to induce AIA, while rats in the normal group were injected intradermally with an equal volume (0.1 mL) of normal saline as a control. After 13 consecutive days of feeding, rats treated with CFA successfully developed typical AIA symptoms. […] During the experiment, the body weight, mental state, activity ability, hair color changes, and paw appearance changes of the rats were observed and recorded daily. In addition, on Day 0 of the experiment (baseline period), the basic paw volume of all rats was accurately measured using a plethysmometer, which served as a reference standard for subsequent evaluation of inflammation severity. From Day 13 to Day 28 of the experiment, the paw volume of the rats was measured repeatedly every 3 days. The degree of paw swelling was quantified by calculating the change in paw volume relative to the baseline. […] The cytokine levels in serum were measured. […]

[7] = system: PR3; assay: AIA model, serum PR3 activity; assay type: in vivo, Sprague-Dawley rats; details: rat AIA, high dose 60 mg/kg gavage, 15 days
Description: as §3

[8] = system: Cat G; assay: AIA model, serum Cat G activity; assay type: in vivo, Sprague-Dawley rats; details: rat AIA, high dose 60 mg/kg gavage, 15 days
Description: as §3

T2 sequence (P08246 30-267): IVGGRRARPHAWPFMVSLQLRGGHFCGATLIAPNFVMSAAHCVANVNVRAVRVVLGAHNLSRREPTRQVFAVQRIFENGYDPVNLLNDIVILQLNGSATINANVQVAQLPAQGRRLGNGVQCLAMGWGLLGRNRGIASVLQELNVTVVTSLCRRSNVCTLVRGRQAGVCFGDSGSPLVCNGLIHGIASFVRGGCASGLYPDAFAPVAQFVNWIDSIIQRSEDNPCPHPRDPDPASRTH

For `C[C@@H]1C[C@H]2OC(=O)[C@@]3(C)CCC[C@@](C)([C@@H]23)[C@@]1(O)CCc1ccoc1` [Marrubiin, marrubiin], the IC50 [1] was 9.8 ± 1.1 µM, the IC50 [2] was greater than 10 µM and the “NE activity, % of DMSO group” value [3] was 8.2%. For the same compound, the “remaining activity rate of PR3” value ([4]; blood) was roughly 13.6%, the “remaining activity rate of PR3” value ([4]; bone marrow) was roughly 25.8% and the “toxic reactions and body weight” value ([5]; 7-day continuous administration) was “no toxic reactions or significant weight loss were observed”. For the same compound, the “H&E staining of tissues and organs (heart, liver, spleen, lung, kidney)” value ([5]; 7 days) was “No pathological changes”, the “serum NE activity, % of control group” value [6] was roughly 47% and the “serum PR3 activity, % of control group” value [7] was roughly 50%. For the same compound, the “serum Cat G activity, % of control group” value [8] was roughly 64%.
